From patent US9650399B2, “Salicylic acid derivatives, pharmaceutically acceptable salt thereof, composition thereof and method of use thereof” (The Governing Council of the University of Toronto, priority 2012, dated 2017)
Read-outs that look alike come from different tables or passages of the source. Values belong to the compound of their own block, whether it stands above or below them.

Experiments:
BTSC68EF = test: alamarBlue cell viability, BTSC 68EF; format: cell-based, human; conditions: Table 4 library screen, alamarBlue; for IC50: Homo sapiens, read-out: 68EF IC50
Description: (§1) First, the library was screened for biological activity against a set of three representative GBM BTSCs derived from GBM patients, including the very aggressive GBM BTSC lines, BTSC73M, BTSC30M, BTSC68EF. Dissociated BTSC spheres were seeded at 1500 cells/96-well and treated with drug compound or vehicle (DMSO) one day after plating. Cell viability following drug treatment was assessed after 72 hrs using the ALAMARBLUE™ assay (Invitrogen) according to the manufacturer's instructions. All culture experiments were performed in triplicate with a minimum of three wells per condition.
(§2) BTSC spheres were dissociated to single cells with the enzyme Accumax (Innovative Technologies), seeded at 1500 cells/96-well and treated with drug or vehicle (DMSO) one day after plating. […] BTSC spheres were dissociated to single cells as above and plated in 96 well plates in triplicate at 3000 cells/96-well. […] Cell viability following drug treatment was assessed three days later using the ALAMARBLUE™ assay (Invitrogen) according to the manufacturer's instructions. All culture experiments were performed in triplicate with a minimum of three wells per condition.

BTSC73M = test: alamarBlue cell viability, BTSC 73M; format: cell-based, human; conditions: for IC50 / 73M IC50 (μM): alamarBlue
Description: as §1, §2

[1] = tested on: patient-derived pancreatic cancer line (Panc10.05); test: MTS cell survival, pancreatic cancer line; format: cell-based; conditions: Homo sapiens, Panc1005, Panc10.05, 72 h, read-out: ED50 (IC50)
Description: Low passage patient-derived pancreatic cancer line (Panc10.05) was plated in 96-well plates (3×10^3 per well) and allowed to attach overnight. STAT3 inhibitors 31, 41, 42 and 38 were added at indicated concentrations. Cell survival was measured 72 h after drug addition with the MTS assay.

BTSC30M = test: alamarBlue cell viability, BTSC 30M; format: cell-based, human
Description: as §1, §2

STAT3 SH2 domain = STAT3 SH2 domain (Homo sapiens, UniProt P40763); test: fluorescence polarization (FP) assay, STAT3; conditions: 5-FAM-GpYLPQTV-NH2 probe
Sequence of STAT3 SH2 domain (P40763 whole entry, the tested form may be a part): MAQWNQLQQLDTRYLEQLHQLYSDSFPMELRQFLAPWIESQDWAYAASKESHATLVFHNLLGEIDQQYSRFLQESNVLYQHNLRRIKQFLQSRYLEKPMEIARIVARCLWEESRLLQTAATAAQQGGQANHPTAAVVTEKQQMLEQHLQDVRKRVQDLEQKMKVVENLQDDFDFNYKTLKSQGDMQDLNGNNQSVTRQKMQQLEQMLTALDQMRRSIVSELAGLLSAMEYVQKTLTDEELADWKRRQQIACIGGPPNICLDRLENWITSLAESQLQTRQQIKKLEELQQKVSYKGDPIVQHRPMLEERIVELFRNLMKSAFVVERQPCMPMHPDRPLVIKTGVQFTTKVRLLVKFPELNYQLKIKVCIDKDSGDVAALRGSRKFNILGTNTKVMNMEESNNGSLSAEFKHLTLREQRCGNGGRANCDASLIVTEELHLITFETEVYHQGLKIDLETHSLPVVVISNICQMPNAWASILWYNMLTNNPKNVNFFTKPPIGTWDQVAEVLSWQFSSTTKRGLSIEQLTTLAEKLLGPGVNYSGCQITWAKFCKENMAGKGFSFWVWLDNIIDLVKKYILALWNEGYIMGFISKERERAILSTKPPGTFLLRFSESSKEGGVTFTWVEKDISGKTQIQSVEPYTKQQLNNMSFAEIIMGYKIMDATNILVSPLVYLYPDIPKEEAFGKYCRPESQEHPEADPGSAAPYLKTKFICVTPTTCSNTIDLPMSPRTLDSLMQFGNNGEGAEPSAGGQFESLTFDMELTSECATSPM
Description: The buffer used contained 50 mM NaCl, 10 mM Hepes, pH 7.5, 1 mM EDTA and 2 mM dithiothreitol and a final concentration of 5% DMSO.
Test compounds were dissolved in DMSO and diluted using a dilution medium consisting of 50 mM NaCl, 10 mM Hepes, pH 7.5, 1 mM EDTA, and 2 mM dithiothreitol. Fluorescently-labelled pYLPQTV peptide (FAM-pYLPQTV) was kept at a final concentration of 10 nM in the buffered solution.
The midpoint of the saturation curve was used to determine the STAT3 concentration required for the competitive fluorescent polarization assay. […] 7.5 μL of inhibitory molecules (and positive control) solution were individually added to the plate. The final inhibitory concentrations were 100 μL, 50 μL, 25A, 12.5 μL, 6.3 μL, or 3.1 μL. The 10% DMSO buffer solution was incubated for 15-30 minutes before signal measurements by the Infinite M1000.

pSTAT3 (Y705) = test: Western blot of phosphorylated STAT3 in BTSCs; format: cell-based, human; conditions: Western blot
From the text: Blots were stained with antibodies: phospho-Y705, phospho-S727, Bcl-xL, cyclin D1, PARP and Actin. Bands were visualized with the ECL PLUS™ Western Blotting Detection System and […]™ (Amersham). […] BTSC spheres were lysed in modified RIPA buffer supplemented with Complete Mini protease (Roche) and Halt phosphatase (Thermo Scientific) inhibitor cocktails. […] Blots were stained with the following antibodies: phospho-STAT3 Y705 (1:1000, Cell Signalling Technology), phospho-STAT3 S727 (1:1000, Cell Signalling Technology), STAT3 (1:1000, Santa Cruz Biotechnology), Bcl-xL (1:1000, Cell Signalling Technology), cyclin D1 (1:1000, Cell Signalling Technology) PARP (1:1000, Cell Signalling Technology) and Actin (1:2500, Santa Cruz Biotechnology). HRP conjugated secondary antibodies, goat anti-rabbit (Cell Signalling Technology) were used at 1:2000 and donkey anti-mouse, donkey anti-goat, and goat anti-rabbit, (Calbiochem) were used at 1:6000. Bands were visualized with the ECL Plus Western Blotting Detection System and Hyperfilm (Amersham).

BTSCs = test: alamarBlue cytotoxicity across BTSC lines; format: cell-based, human; conditions: Homo sapiens
Description: as §1, §2

[2] = tested on: normal human fetal astrocytes (HF 2003, HF 2006, HF 2009, HF 2013); test: toxicity in normal human fetal astrocytes; format: cell-based; conditions: concentrations of up to 5 μM
Description: Given the nM cytoxicity, these compounds were assayed for biological effects in healthy cells.
GBM BTSCs were cultured from a series of tumor specimens obtained following informed consent from adult GBM patients during their operative procedure as previously described (Kelly et al, Stem Cells 2009) and approved by the University of Calgary Ethics Review Board. Briefly, BTSC cultures were initiated in serum-free defined culture medium (SFM) and gave rise to nonadherent spheres after 7 to 21 days in culture. Primary tumor spheres were expanded for several passages and then cryopreserved in 10% DMSO (Sigma Aldrich) in serum-free defined medium until use in experiments. Human fetal neural stem cells were also cultured as previously described and induced to differentiate into astrocytes by addition of 10% fetal bovine serum and removal of EGF, FGF-2 and heparan sulfate.

147EF = test: alamarBlue cell viability, BTSC 147EF; format: cell-based, human; conditions: Homo sapiens, Table 4 library screen
From the text: BTSC spheres were dissociated to single cells with the enzyme Accumax (Innovative Technologies), seeded at 1500 cells/96-well and treated with drug or vehicle (DMSO) one day after plating. Cytotoxicity studies were repeated independently at Sickkids Hospital using BTSC lines 25M, 67EF, 73EF, 84EF and 127EF. BTSC spheres were dissociated to single cells as above and plated in 96 well plates in triplicate at 3000 cells/96-well. In both sets of experiments drugs were used as serial dilutions within the range of 5 μM to 100 nM in the first set and 25 μM to 10 nM. Cell viability following drug treatment was assessed three days later using the ALAMARBLUE™ assay (Invitrogen) according to the manufacturer's instructions. All culture experiments were performed in triplicate with a minimum of three wells per condition. Table 4 below illustrates a screen of the library against a number of BTSCs using ALAMARBLUE™ assay.

[3] = cited from earlier work
His-tagged STAT5 = test: surface plasmon resonance (SPR) binding, STAT5; design: species or system human; conditions: SPR control experiment
Description: Interactions of His-tagged STAT3 with small molecules were investigated using SPR spectroscopy. The binding experiments were carried out on a ProteOn XPR36 (Bio-Rad) biosensor at 25° C. using the HTE sensor chip (Bio-Rad, Ontario, Canada). The flow cells of the sensor chip were loaded with a nickel solution at 30 μL/min for 120 s to saturate the Tris NTA surface with Ni(II) ions. Purified His-tagged STAT3 and STAT5 (SignalChem, British Columbia, Canada) in PBST buffer (PBS with 0.005% (v/v) Tween-20 and 0.001% DMSO pH 7.4) was injected in the first and second channels of the chip respectively in the vertical direction at a flow rate of […] for 300 s, which attained, on average, 8000 resonance unit (RU). After a wash with PBST buffer, inhibitors binding to the immobilized proteins were monitored by injecting a range of concentrations along with a blank at a flow rate of 100 μL/min for 200 s for each of these small molecules. When the injection of the small molecule inhibitor was completed, running buffer was allowed to flow over the immobilized substrates for the non-specifically bound inhibitors to dissociate for 600 s. Following dissociation of the inhibitors, the chip surface was regenerated with an injection of 1 M NaCl at a flow rate of […] for 18 s. […] Data were analyzed using ProteOn Manager Software version 3.1. […]

[4] = Homo sapiens, Table 4 library screen, read-out: 73M IC50
[5] = Homo sapiens, read-out: 30M IC50 (μM), Table 4 library screen, alamarBlue
[6] = Table 4 library screen, alamarBlue

Compound: CN(CC(=O)N(Cc1ccc(C2CCCCC2)cc1)c1ccc(O)c(C(=O)O)c1)S(=O)(=O)c1c(F)c(F)c(F)c(F)c1F [Compound 38, 5-(N-(4-cyclohexylbenzyl)-2-(2,3,4,5,6-pentafluoro-N-methylphenylsulfonamido)acetamido)-2-hydroxybenzoic acid]
IC50 (BTSC68EF): 3050 nM | IC50 (BTSC73M; [4]): 2.55 µM | IC50 [1]: 4.8 µM | IC50 (BTSC30M; [5]): 2.07 µM

disruption of STAT3:phosphopeptide interaction / binding activity (in words) (STAT3 SH2 domain): most potent inhibitor of STAT3
Compound: CN(CC(=O)N(Cc1ccc(C2CCCCC2)cc1)c1ccc(C(=O)OCOC(=O)C(C)(C)C)cc1)S(=O)(=O)c1c(F)c(F)c(F)c(F)c1F [Compound 27, (pivaloyloxy)methyl 4-(N-(4-cyclohexylbenzyl)-2-(2,3,4,5,6-pentafluoro-N-methylphenylsulfonamido)acetamido)benzoate]
68EF IC50 (μM) (BTSC68EF): no effect | 30M IC50 (μM) (BTSC30M; [6]): no effect

Compound: CC(=O)Oc1cc(N(Cc2ccc(C3CCCCC3)cc2)C(=O)CN(C)S(=O)(=O)c2c(F)c(F)c(F)c(F)c2F)ccc1C(=O)O [Compound 22, 2-acetoxy-4-(N-(4-cyclohexylbenzyl)-2-(2,3,4,5,6-pentafluoro-N-methylphenylsulfonamido)acetamido)benzoic acid]
pSTAT3 inhibition potency (pSTAT3 (Y705); 0, 0.1, 0.5, 1.0 and 5.0 μM): nM inhibition of pSTAT3 | suppression of pSTAT3 (Y705) (pSTAT3 (Y705); 1 μM, BTSCs): most suppression of pSTAT3 (Y705) | EC50 (BTSCs; collective range over 8 BTSC lines, read-out: EC50s across all 8 BTSCs evaluated): 66 to 1140 nM | IC50 (BTSCs; collective range, units given in the value, read-out: IC50 values of the top four ranked compounds against BTSCs): 100 to 3800 nM | IC50 (BTSC68EF): 891 nM | IC50 (BTSC73M; [4]): 1.45 µM | toxicity in normal human cells [2]: minimal toxicity | IC50 (147EF): 776 nM | IC50 (BTSC30M; [5]): 0.526 µM | IC50 (BTSC30M; Homo sapiens, read-out: IC50 (nM) in BTSC 30M): 0.526 ± 0.013 µM

Compound: Cucurbitacin [Cucurbitacin 1, reference compound]
EC50 (BTSC73M; BTSC 73M, read-out: EC50 v.s. 73M): 700 nM | IC50 (BTSC73M; Table 2, BTSC 73M, 72 hrs, read-out: IC50 (μM) 73M): 0.7 ± 0.06 µM | BBB permeability [3]: poor BBB permeability | EC50 (BTSC30M; read-out: EC50 v.s. 30M, BTSC 30M): 630 nM | IC50 (BTSC30M; read-out: IC50 (μM) 30M, Table 2, BTSC 30M, alamarBlue, 72 hrs): 0.63 ± 0.08 µM

Compound: Cc1ccc(S(=O)(=O)N(C)CC(=O)N(Cc2ccc(C3CCCCC3)cc2)c2ccc(C(=O)O)cc2)cc1 [Compound 42, 4-(N-(4-cyclohexylbenzyl)-2-(N,4-dimethylphenylsulfonamido)acetamido)benzoic acid]
73M IC50 (μM) (BTSC73M; Table 4 library screen): no effect | IC50 [1]: 16.7 µM | 30M IC50 (μM) (BTSC30M; [6]): no effect

KD (STAT5) (His-tagged STAT5): No binding
Compound: CC(C)C[C@H](NC(=O)[C@@H](N)Cc1ccc(OP(=O)(O)O)cc1)C(=O)N1CCC[C@H]1C(=O)N[C@@H](CCC(N)=O)C(=O)N[C@H](C(=O)N[C@H](C(N)=O)C(C)C)[C@@H](C)O [STAT3 peptide sequence]

Compound: CN(CC(=O)N(Cc1ccc(C2CCCCC2)cc1)c1ccccc1)S(=O)(=O)c1c(F)c(F)c(F)c(F)c1F [Compound 36, N-(4-cyclohexylbenzyl)-2-(2,3,4,5,6-pentafluoro-N-methylphenylsulfonamido)-N-phenylacetamide]
73M IC50 (μM) (BTSC73M; Table 4 library screen): no effect | disruption of STAT3:phosphopeptide interaction / binding activity (in words) (STAT3 SH2 domain): no disruption of the STAT3:phosphopeptide interaction
